The values below come from ChEMBL document CHEMBL1157539, “Thousands of chemical starting points for antimalarial lead identification” (Nature, 2010).

This assay deals with Plasmodium falciparum. The assay can be described thus: GSK_TCMDC: Inhibition of Plasmodium falciparum 3D7 in whole erythrocytes, using parasite LDH activity as an index of growth. Type of assay: functional, organism-based. The following applies: Plasmodium falciparum, 3D7.

In turn, `CCc1ccc(CN2CCC(CNC(=O)c3cc(-c4cccc(C(F)(F)F)c4)cs3)C2)cc1` (centres undefined) had an XC50 of 753 nM. The same measure for `COc1ccccc1CNc1ccnc(NCCc2cccc(C(F)(F)F)c2)n1`: 925 nM; for `Cc1ccccc1C1CCN(c2ccc(C(=O)Nc3ccccc3)cn2)CC1`: 327 nM; for `CC1(C)NC(N)=NC(=N)N1OCCSc1ccc(Cl)c(Cl)c1`: 3.2 nM. The same measure for `O=C(NCc1ccccn1)C(c1cc2ccccc2o1)N1CCN(C(c2ccccc2)c2ccccc2)CC1` (centres undefined): 856 nM. In the case of `NC1CCN(c2nc(NCCc3ccc(O)cc3)nc(NCc3ccccc3-c3ccccc3)n2)CC1` it was 822 nM. Compound `OC(CN1CCN(C2CCCCC2)CC1)Cn1c2ccccc2c2cc(Br)ccc21` (centres undefined) had an XC50 of 857 nM. In the case of `COc1ccc(F)cc1-c1ccc(C(=O)N2CCCN(c3ccc(C#N)cn3)CC2)cc1` it was 112 nM; in that of `CC(C)(C)c1ccc(NC(=O)c2cccc(CN3CCCN(Cc4ccc(F)cc4)CC3)c2)cc1`, 989 nM. The same measure for `Cc1[nH]c(C)c(-c2ccc(-c3ccccc3F)nc2)c(=O)c1Br`: 401 nM. In the case of `Oc1ccccc1CN1CCN(C(c2ccccc2)c2ccccc2)CC1` it was 761 nM.

Regarding `O=C(N[C@H]1CCN(Cc2ccc(OCCN3CCCC3)c(Cl)c2)C1)c1ccc(Cl)c(Cl)c1`, the XC50 was determined as 921 nM. The same measure for `CN(C)CC(O)C(c1ccccc1)c1cccc(Br)c1` (centres undefined): 164 nM. The compound `COc1ccc(F)cc1-c1csc(N(c2ccc(F)cc2)C2CCNCC2)n1` came in with an XC50 of 1210 nM.

`Nc1nc(N)c2c(Oc3cccnc3)cccc2n1` returned an XC50 of 886 nM. In the case of `CN(C(=O)/C=C/c1ccccc1F)C1CCN(CCCCCNC(=O)/C=C/c2ccc(Cl)c(Cl)c2)CC1` it was 509 nM; in that of `C=CCOc1ccc(Cc2cnc(N)nc2N)cc1CCC`, 1020 nM. In the case of `CC[C@H]1CN2CC[C@H]1C[C@H]2[C@H](O)c1cc(-c2ccc(OC(F)(F)F)cc2)nc2ccc(OC)cc12` it was 51.1 nM; in that of `CCCOc1ccc(C(F)(F)F)cc1NC(=O)c1nc2nc(C)cc(C)n2n1`, 251 nM. The same measure for `FC(F)(F)c1ccc(COc2cc(Cl)ccc2Cn2ccnc2)cc1`: 649 nM; for `CC(C)Cc1cn(-c2nc(-c3nc4ccccc4[nH]3)cs2)c2ccncc12`: 90 nM; for `N#Cc1ccnc(-c2ccc(CNC3CCN(CC4Cn5c(=O)ccc6ccc(F)c4c65)CC3)cc2)c1` (centres undefined): 1220 nM. Regarding `CC(=O)Oc1cc(C)ccc1C1CCN(CCCCNC(=O)c2ccc(NC(=O)c3ccc(Cl)cc3)cc2)CC1`, the XC50 is 721 nM. The same measure for `Cc1cc2c(/C=C/C(=O)NC3CCC(CCN4CCc5ccc(C#N)cc5CC4)CC3)cccc2[nH]1` (centres undefined): 840 nM; for `O=[N+]([O-])c1c(O)nc2c(c1O)CCC2`: 1050 nM; for `CCN(CC)CCN(Cc1ccc(-c2ccc(C(F)(F)F)cc2)cc1)C(=O)Cn1c(CCc2cccc(F)c2F)nc(=O)c2sccc21`: 905 nM. The same measure for `Cc1cccc(Nc2c(-c3cc(Br)ccc3O)nc3ncccn23)c1`: 206 nM; for `CC(=O)N(C)C1CCN(Cc2ccc(-c3ccc(-c4nc5cc(F)ccc5[nH]4)s3)cc2)C1` (centres undefined): 971 nM; for `CN(C)C(CNC(=O)c1cc(-c2ccncc2)c(-c2ccc(NC(=O)Nc3cccc(F)c3)cc2)o1)c1ccccc1` (centres undefined): 772 nM.

With `Cc1noc(C)c1C(=O)N1CCCC(c2[nH]c3c(C)cccc3c2-c2ccncc2)C1` (centres undefined), the XC50 was 843 nM. In the case of `CC(C)c1cc2c(cc1O)C(Cc1ccccc1Cl)N(C)CC2` (centres undefined) it was 732 nM. For `COc1cccc2c(O)c(CNC3CCCCC3)ccc12`, the XC50 was 630 nM. In the case of `CCCCCCN1CCN(Cc2cccc(NC(=O)c3cc4ccccc4o3)c2)CC1` it was 909 nM; in that of `CCOC(=O)Cn1ccc2c(NCc3ccccc3)nc(C)nc21`, 374 nM; in that of `O=C(NCC1CCN(Cc2ccsc2)C1)c1cc(-c2cccc(C(F)(F)F)c2)cs1` (centres undefined), 700 nM. In the case of `O=S(=O)(Nc1cc2c(cc1OCc1ccccc1)CCN(C1CCC1)CC2)c1ccc(-c2ccc(Cl)cc2)cc1` it was 1140 nM. The same measure for `Cc1ccc(C)c(S(=O)(=O)NCC2CCN(Cc3ccc(O)cc3)CC2)c1`: 978 nM. In the case of `CCN(CC)CC(O)Cc1c2ccc([N+](=O)[O-])cc2nc2cc(OC)c(OC)cc12` (centres undefined), the XC50 came out at 739 nM. Consider `O=C(NCC1CCN(CC2CCCCC2)C1)c1cc(-c2cccc(C(F)(F)F)c2)cs1` (centres undefined), for which the XC50 was 738 nM. As for `C=CCn1c(=N)n(CC(O)c2ccc(Cl)c(Cl)c2)c2ccccc21` (centres undefined), the XC50 came out at 338 nM. In the case of `CCC(C)NC(=O)Cn1c2ncccc2c(=O)n1-c1ccc(C)cc1` (centres undefined) it was 1260 nM. In the case of `O=C(CCc1ccccc1)N[C@H](Cc1c[nH]c2ccccc12)C(=O)N1CCC(NCc2ccc3c(c2)Cc2ccccc2-3)CC1` it was 910 nM; in that of `COc1cccc(CC(C)NCC(O)c2cccc(Cl)c2)c1` (centres undefined), 1270 nM; in that of `CN1CCN(c2ccc(Nc3c4ccccc4nc4ccccc34)cc2)CC1`, 645 nM. The same measure for `CCCCc1cc(NCC)nc(Nc2ccc(F)cc2)n1`: 790 nM; for `COc1cc(CS(C)(=O)=O)ccc1Nc1nccc(-c2c(-c3cccc(NC(=O)c4c(F)cccc4F)c3)nn3ccccc23)n1`: 966 nM. On to `N=C(NCc1ccccc1)Nc1nc(-c2ccc(OCCCn3ccnc3)cc2)cs1`, for which the XC50 is 253 nM.

`Cc1cccc2nc(-c3ccc(-c4ccc(NC(=O)C(=O)c5cccn5C)cc4)cc3)[nH]c12` displayed an XC50 of 819 nM. In the case of `CN(C)C1CCN(CC#Cc2cc3ncnc(Nc4ccc(OCc5cccc(F)c5)c(Cl)c4)c3s2)CC1` it was 887 nM; in that of `O=C(NC1CCN(Cc2ccccc2O)C1)c1ccc(Cl)c(Cl)c1` (centres undefined), 894 nM. With `COc1ccc(CC2(CO)CCN(Cc3ccc(O)c(Cl)c3)CC2)cc1`, the XC50 was 859 nM. The same measure for `CC(C)[C@H](NC(=O)c1ccc(O)c(-c2ccc(Cl)c(Cl)c2)c1)C(=O)NCCN(C)C`: 1050 nM; for `COc1cc2c(cc1OC)CN(CCCCNC(=O)c1ccc(NC(=O)c3cc(Cl)cc(Cl)c3)cc1)CC2`: 778 nM; for `O=C1OC2(CN1CC1CCN(Cc3ccc(-n4ccnc4)cc3)C1)c1ccccc1-c1ccccc12` (centres undefined): 983 nM. In the case of `N=C(Nc1nc(-c2ccccn2)cc2ccccc12)c1cccc(Cl)c1` it was 309 nM; in that of `COc1ccc(CCNc2nc(SCc3ccccc3Cl)nc3ccccc23)cc1OC`, 943 nM. The same measure for `OCCCCCCNc1ccnc2[nH]c3ccc(I)cc3c12`: 1070 nM. `COc1ccc(-c2ccc(NC(=O)c3cccc(Cl)c3)cc2)cc1CN(C)CCO`: the XC50 was found to be 710 nM. In the case of `COc1cc2nc(Nc3ccc(N4CCOCC4)cc3)nc(N)c2cc1OC` it was 871 nM; in that of `O=C(c1ccc(O)c(-c2cc(Cl)cc(Cl)c2)c1)N1CCCC1`, 1000 nM; in that of `COc1ccc(CCN(C)CCCOc2ccc(NC(=O)COc3cccc4sc5ccccc5c(=O)c34)cc2)cc1OC`, 459 nM.

Compound `O=C(NCC1CCN(Cc2ccc3c(c2)OCCO3)C1)c1cc(-c2ccccc2F)cs1` (centres undefined) registered an XC50 of 1020 nM.

For the compound `Cc1ccc(Nc2nc3cc(Nc4ccnc(Nc5ccc(CS(C)(=O)=O)cc5)n4)ccc3o2)cc1`, the XC50 came to 765 nM.

Consider `COc1cc2c(cc1N1CCN(C)CC1)N(C(=O)Nc1ccc(-c3ccncc3)c(Cl)c1Cl)CC2`, for which the XC50 was 608 nM.
